Data from patent publication US20220016115A1, “USP19 INHIBITORS FOR USE IN THERAPY” (ALMAC DISCOVERY LIMITED, priority 2018, published 2022).

Molecular target: T1, USP19 (Homo sapiens, UniProt O94966)
T1 sequence (O94966 1-1318): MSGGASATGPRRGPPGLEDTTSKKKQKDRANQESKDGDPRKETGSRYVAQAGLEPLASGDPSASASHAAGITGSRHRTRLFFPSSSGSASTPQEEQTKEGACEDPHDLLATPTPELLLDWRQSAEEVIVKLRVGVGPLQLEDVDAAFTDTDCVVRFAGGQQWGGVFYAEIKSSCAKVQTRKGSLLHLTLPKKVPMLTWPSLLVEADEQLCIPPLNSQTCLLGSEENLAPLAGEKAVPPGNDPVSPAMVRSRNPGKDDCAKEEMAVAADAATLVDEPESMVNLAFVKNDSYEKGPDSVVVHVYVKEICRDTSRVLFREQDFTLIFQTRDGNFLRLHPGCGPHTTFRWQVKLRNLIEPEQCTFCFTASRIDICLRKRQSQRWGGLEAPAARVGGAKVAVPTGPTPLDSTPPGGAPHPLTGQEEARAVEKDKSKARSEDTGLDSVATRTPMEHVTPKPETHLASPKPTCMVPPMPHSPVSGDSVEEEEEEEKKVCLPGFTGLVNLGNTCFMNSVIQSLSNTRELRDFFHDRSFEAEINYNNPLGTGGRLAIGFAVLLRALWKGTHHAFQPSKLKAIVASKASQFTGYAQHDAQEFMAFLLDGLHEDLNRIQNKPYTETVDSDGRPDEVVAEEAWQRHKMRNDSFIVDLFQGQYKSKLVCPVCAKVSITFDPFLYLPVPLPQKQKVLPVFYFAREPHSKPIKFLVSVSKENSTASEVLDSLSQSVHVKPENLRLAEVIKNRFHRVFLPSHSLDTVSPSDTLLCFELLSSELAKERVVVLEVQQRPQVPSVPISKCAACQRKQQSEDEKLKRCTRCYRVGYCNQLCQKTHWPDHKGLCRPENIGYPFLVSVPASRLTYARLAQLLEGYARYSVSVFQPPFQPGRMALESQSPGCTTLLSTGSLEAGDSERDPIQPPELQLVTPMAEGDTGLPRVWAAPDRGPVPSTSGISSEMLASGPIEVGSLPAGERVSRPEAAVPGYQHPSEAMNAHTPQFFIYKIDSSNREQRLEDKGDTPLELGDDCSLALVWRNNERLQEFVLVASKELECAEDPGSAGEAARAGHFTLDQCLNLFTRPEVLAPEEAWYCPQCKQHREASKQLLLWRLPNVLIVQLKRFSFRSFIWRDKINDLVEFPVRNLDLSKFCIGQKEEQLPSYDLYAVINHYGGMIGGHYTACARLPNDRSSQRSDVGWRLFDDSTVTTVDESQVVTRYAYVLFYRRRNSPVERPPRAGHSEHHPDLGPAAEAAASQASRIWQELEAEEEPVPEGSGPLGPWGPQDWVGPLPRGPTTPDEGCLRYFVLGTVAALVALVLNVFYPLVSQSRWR
Experiment: USP19 fluorescence polarisation (FP) homogeneous assay
Format: biochemical
Parameters: Full-length USP19 was purchased from Boston Biochem (E-576); purchased Boston Biochem E-576
Details: Ubiquitin-Lys-TAMRA substrate, full-length USP19 2.5 nM, average of at least two duplicate experiments
Experimental: Unless otherwise stated, all other reagents were purchased from Sigma. Enzymatic reactions were conducted in black flat bottom polystyrene 384-well plates (Nunc) and 30 μL total volume. […] Inhibitors were stored as 10 mM DMSO stocks in an inert environment (low humidity, dark, low oxygen, room temperature) using the Storage Pod System and serial dilutions were prepared in buffer just prior to the assay (from 200 μM to 2 μM, 8-18 data point curve). Following incubation at RT for 30 min, the enzymatic reactions were initiated by dispensing the Ub substrate (500 nM, 10 μL). FP was measured every 15 min over a period of 90 min (within the linear range of the assay) using a Synergy 4 plate reader (BioTek) exciting at 530 nm and measuring the amount of parallel and perpendicular light at 575 nm. The FP signal was subsequently normalised to the no compound control.

Row | IC50 [nM] | Structure (SMILES)
1 | < 500 | C[C@H](CC1CCCCC1)C(=O)N1CC[C@@](O)(Cn2cc(C(=O)N(C)C)c(-c3ccccc3F)cc2=O)C(C)(C)C1 [Example 205, 1-(((S)-1-((R)-3-Cyclohexyl-2-methylpropanoyl)-4-hydroxy-3,3-dimethylpiperidin-4-yl)methyl)-4-(2-fluorophenyl)-N,N-dimethyl-6-oxo-1,6-dihydropyridine-3-carboxamide]
2 | < 500 | C[C@H](CC1CCCCC1)C(=O)N1CC[C@@](O)(Cn2cc(C(=O)N3CCNCC3)c(-c3ccccc3F)cc2=O)C(C)(C)C1 [Example 206, 1-(((S)-1-((R)-3-Cyclohexyl-2-methylpropanoyl)-4-hydroxy-3,3-dimethylpiperidin-4-yl)methyl)-4-(2-fluorophenyl)-5-(piperazine-1-carbonyl)pyridin-2(1 H)-one]
3 | < 500 | C[C@H](CC1CCCCC1)C(=O)N1CC[C@@](O)(Cn2cc(C(=O)N3CCNC[C@H]3CO)c(-c3ccccc3)cc2=O)C(C)(C)C1 [Example 208, 1-(((S)-1-((R)-3-Cyclohexyl-2-methylpropanoyl)-4-hydroxy-3,3-dimethylpiperidin-4-yl)methyl)-5-((S)-2-(hydroxymethyl)piperazine-1-carbonyl)-4-phenylpyridin-2(1H)-one]
4 | < 500 | C[C@H](CC1CCCCC1)C(=O)N1CC[C@@](O)(Cn2cc(C(=O)N(C)C)c(-c3ccccc3)cc2=O)C2(CCCC2)C1 [Example 211, 1-(((S)-7-((R)-3-Cyclohexyl-2-methylpropanoyl)-10-hydroxy-7-azaspiro[4.5]decan-10-yl)methyl)-N,N-dimethyl-6-oxo-4-phenyl-1,6-dihydropyridine-3-carboxamide]
5 | < 500 | C[C@@H]1CN(C(=O)c2cn(C[C@]3(O)CCN(C(=O)[C@H](C)CC4CCCCC4)CC3(C)C)c(=O)cc2-c2ccccc2)CCN1 [Example 213, 1-(((S)-1-((R)-3-Cyclohexyl-2-methylpropanoyl)-4-hydroxy-3,3-dimethylpiperidin-4-yl)methyl)-5-((R)-3-methylpiperazine-1-carbonyl)-4-phenylpyridin-2(1 H)-one]
6 | < 500 | C[C@H](CC1CCC1)C(=O)N1CC[C@@](O)(Cn2cc(C(=O)N(C)C)c(-c3ccccc3)cc2=O)C2(CCCC2)C1 [Example 214, 1-(((S)-7-((R)-3-Cyclobutyl-2-methylpropanoyl)-10-hydroxy-7-azaspiro[4.5]decan-10-yl)methyl)-N,N-dimethyl-6-oxo-4-phenyl-1,6-dihydropyridine-3-carboxamide]
7 | < 500 | C[C@H](CC1CCC1)C(=O)N1CC[C@@](O)(Cn2cc(C(=O)N3CCNCC3)c(-c3ccccc3)cc2=O)C2(CCCC2)C1 [Example 215, 1-(((S)-7-((R)-3-Cyclobutyl-2-methylpropanoyl)-10-hydroxy-7-azaspiro[4.5]decan-10-yl)methyl)-4-phenyl-5-(piperazine-1-carbonyl)pyridin-2(1H)-one]
8 | < 500 | C[C@H](CC(F)(F)F)C(=O)N1CC[C@@](O)(Cn2cc(C(=O)N(C)C)c(-c3ccccc3)cc2=O)C2(CCCC2)C1 [Example 216, 1-(((S)-10-Hydroxy-7-((R)-4,4,4-trifluoro-2-methylbutanoyl)-7-azaspiro[4.5]decan-10-yl)methyl)-N,N-dimethyl-6-oxo-4-phenyl-1,6-dihydropyridine-3-carboxamide]
9 | < 500 | C[C@H](CC(F)(F)F)C(=O)N1CC[C@@](O)(Cn2cc(C(=O)N3CCNCC3)c(-c3ccccc3)cc2=O)C2(CCCC2)C1 [Example 217, 1-(((S)-10-Hydroxy-7-((R)-4,4,4-trifluoro-2-methylbutanoyl)-7-azaspiro[4.5]decan-10-yl)methyl)-4-phenyl-5-(piperazine-1-carbonyl)pyridin-2(1H)-one]
10 | < 500 | C[C@H](CC1CCC1)C(=O)N1CC[C@@](O)(Cn2cc(C(=O)N(C)C)c(-c3ccccc3F)cc2=O)C2(CCCC2)C1 [Example 222, 1-(((S)-7-((R)-3-Cyclobutyl-2-methylpropanoyl)-10-hydroxy-7-azaspiro[4.5]decan-10-yl)methyl)-4-(2-fluorophenyl)-N,N-dimethyl-6-oxo-1,6-dihydropyridine-3-carboxamide]
11 | < 500 | C[C@H](CC1CCC1)C(=O)N1CC[C@@](O)(Cn2cc(C(=O)N3CCNCC3)c(-c3ccccc3F)cc2=O)C2(CCCC2)C1 [Example 224, 1-(((S)-7-((R)-3-Cyclobutyl-2-methylpropanoyl)-10-hydroxy-7-azaspiro[4.5]decan-10-yl)methyl)-4-(2-fluorophenyl)-5-(piperazine-1-carbonyl)pyridin-2(1 H)-one]
12 | < 500 | C[C@H](CC1CCCCC1)C(=O)N1CC[C@@](O)(Cn2cc(C(=O)N(C)C)c(-c3ccccc3F)cc2=O)C2(CCCC2)C1 [Example 226, 1-(((S)-7-((R)-3-Cyclohexyl-2-methylpropanoyl)-10-hydroxy-7-azaspiro[4.5]decan-10-yl)methyl)-4-(2-fluorophenyl)-N,N-dimethyl-6-oxo-1,6-dihydropyridine-3-carboxamide]
13 | < 500 | C[C@H](CC1CCCCC1)C(=O)N1CC[C@@](O)(Cn2cc(C(=O)N3CCNCC3)c(-c3ccccc3F)cc2=O)C2(CCCC2)C1 [Example 227, 1-(((S)-7-((R)-3-Cyclohexyl-2-methylpropanoyl)-10-hydroxy-7-azaspiro[4.5]decan-10-yl)methyl)-4-(2-fluorophenyl)-5-(piperazine-1-carbonyl)pyridin-2(1 H)-one]
14 | < 500 | C[C@H](CC1CCCCC1)C(=O)N1CC[C@@](O)(Cn2cc(C(=O)N3CCC(O)CC3)c(-c3ccccc3)cc2=O)C(C)(C)C1 [Example 228, 1-(((S)-1-((R)-3-Cyclohexyl-2-methylpropanoyl)-4-hydroxy-3,3-dimethylpiperidin-4-yl)methyl)-5-(4-hydroxypiperidine-1-carbonyl)-4-phenylpyridin-2(1 H)-one]
15 | < 500 | C[C@H](CC1CCCCC1)C(=O)N1CC[C@@](O)(Cn2cc(C(=O)N(C)C)c(C3CC3)cc2=O)C2(CCCC2)C1 [Example 232, 1-(((S)-7-((R)-3-Cyclohexyl-2-methylpropanoyl)-10-hydroxy-7-azaspiro[4.5]decan-10-yl)methyl)-4-cyclopropyl-N,N-dimethyl-6-oxo-1,6-dihydropyridine-3-carboxamide]
16 | < 500 | C[C@H](CC1CCCCC1)C(=O)N1CC[C@@](O)(Cn2cc(C(=O)N3CCNCC3)c(C3CC3)cc2=O)C2(CCCC2)C1 [Example 233, 1-(((S)-7-((R)-3-Cyclohexyl-2-methylpropanoyl)-10-hydroxy-7-azaspiro[4.5]decan-10-yl)methyl)-4-cyclopropyl-5-(piperazine-1-carbonyl)pyridin-2(1H)-one]
17 | < 500 | C[C@H](CC1CCC1)C(=O)N1CC[C@@](O)(Cn2cc(C(=O)N3CCNCC3)c(-c3ccccc3F)cc2=O)C(C)(C)C1 [Example 236, 1-(((S)-1-((R)-3-Cyclobutyl-2-methylpropanoyl)-4-hydroxy-3,3-dimethylpiperidin-4-yl)methyl)-4-(2-fluorophenyl)-5-(piperazine-1-carbonyl)pyridin-2(1 H)-one]

Row | Structure (SMILES) | IC50 [nM]
18 | C[C@H](CC1CCCCC1)C(=O)N1CC[C@@](O)(Cn2cc(C(=O)N3CCNCC3)c(-c3ccccc3)cc2=O)C2(CCCC2)C1 [Example 212, 1-(((S)-7-((R)-3-Cyclohexyl-2-methylpropanoyl)-10-hydroxy-7-azaspiro[4.5]decan-10-yl)methyl)-4-phenyl-5-(piperazine-1-carbonyl)pyridin-2(1H)-one] | < 500
